Consider two molecules from article PMC6768109, “A novel assay for measuring recombinant human lysophosphatidylcholine acyltransferase 3 activity” (FEBS Open Bio, 2019).

Data set [1] addresses T1, recombinant human lysophosphatidylcholine acyltransferase 3 (rhLPCAT3) (Homo sapiens, UniProt Q6P1A2).
T1 construct: gene LPCAT3; human LPCAT3 (BC065194.1) with HRV 3C site and C-terminal Twin-strep-tag, expressed in Sf9 cells, purified in DDM
T1 sequence (Q6P1A2 2-487): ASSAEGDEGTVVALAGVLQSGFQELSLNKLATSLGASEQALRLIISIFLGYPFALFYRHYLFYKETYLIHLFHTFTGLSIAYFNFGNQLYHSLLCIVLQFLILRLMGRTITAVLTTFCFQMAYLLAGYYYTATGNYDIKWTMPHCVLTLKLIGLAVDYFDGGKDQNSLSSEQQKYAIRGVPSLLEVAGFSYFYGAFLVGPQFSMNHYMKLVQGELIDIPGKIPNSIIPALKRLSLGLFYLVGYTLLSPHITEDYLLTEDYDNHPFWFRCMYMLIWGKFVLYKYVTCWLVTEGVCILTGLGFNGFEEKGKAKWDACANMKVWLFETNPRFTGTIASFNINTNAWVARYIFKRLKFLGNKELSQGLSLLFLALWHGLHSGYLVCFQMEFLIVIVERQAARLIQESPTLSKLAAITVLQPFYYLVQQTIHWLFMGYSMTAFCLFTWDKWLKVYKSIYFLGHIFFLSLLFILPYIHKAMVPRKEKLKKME
Nature of the data set: reversed-phase HPLC fluorescence assay of NBD-PC formation by purified rhLPCAT3. Type of data set: biochemical.

Substrate in data set [2]: CCCCC/C=C\C/C=C\C/C=C\C/C=C\CCCC(=O)SCCNC(=O)CCNC(=O)[C@H](O)C(C)(C)COP(=O)(O)OP(=O)(O)OC[C@H]1O[C@@H](n2cnc3c(N)ncnc32)[C@H](O)[C@@H]1OP(=O)(O)O
Nature of the data set: bisubstrate kinetics (Km) of purified enzyme, reversed-phase HPLC with fluorescence detection. Type of data set: biochemical, Homo sapiens.

In the case of `CCCOC(=O)c1ccc(N2C(=O)C(Cl)=C(Cl)C2=O)cc1` [TSI-10], in data set [1], the IC50 (commonly the midpoint of a concentration-inhibition curve) worked out at 174 ± 1.04 µM.

B1: recombinant human lysophosphatidylcholine acyltransferase 3 (rhLPCAT3) (Homo sapiens) (protein)
chain: ASSAEGDEGTVVALAGVLQSGFQELSLNKLATSLGASEQALRLIISIFLGYPFALFYRHYLFYKETYLIHLFHTFTGLSIAYFNFGNQLYHSLLCIVLQFLILRLMGRTITAVLTTFCFQMAYLLAGYYYTATGNYDIKWTMPHCVLTLKLIGLAVDYFDGGKDQNSLSSEQQKYAIRGVPSLLEVAGFSYFYGAFLVGPQFSMNHYMKLVQGELIDIPGKIPNSIIPALKRLSLGLFYLVGYTLLSPHITEDYLLTEDYDNHPFWFRCMYMLIWGKFVLYKYVTCWLVTEGVCILTGLGFNGFEEKGKAKWDACANMKVWLFETNPRFTGTIASFNINTNAWVARYIFKRLKFLGNKELSQGLSLLFLALWHGLHSGYLVCFQMEFLIVIVERQAARLIQESPTLSKLAAITVLQPFYYLVQQTIHWLFMGYSMTAFCLFTWDKWLKVYKSIYFLGHIFFLSLLFILPYIHKAMVPRKEKLKKME
notes: human LPCAT3 (BC065194.1) with HRV 3C site and C-terminal Twin-strep-tag, expressed in Sf9 cells, purified in DDM
For the molecule B1, the Km (commonly the concentration of substrate that gives half-maximal velocity) in data set [2] came out at 11.03 ± 0.51 µM.
